Source: patent US20160058735A1, “METHODS OF TREATING HYPERHIDROSIS” (Dermira, Inc., priority 2014, published 2016)

What was measured:
[1] = test system: patients with severe primary axillary hyperhidrosis; assay: Phase 2a clinical trial: disease severity by Hyperhidrosis Disease Severity Scale (HDSS); assay type: in vivo, human; settings: Formulation A, 2% and 4% pooled; first on-treatment assessment, about one week
Protocol: (§1) The completed Phase 2a clinical trial was a randomized, double-blind study in 38 patients with severe primary axillary hyperhidrosis.
(§2) Patients were instructed to apply the study product once daily for four weeks using wipes saturated with either the topical formulation of the reference agent or vehicle only. Efficacy was evaluated based on axillary sweat production and disease severity. Assessments were conducted approximately weekly during the four-week treatment period and two weeks after the end of this treatment period. Disease severity was measured using a widely-used patient-reported outcome tool called the Hyperhidrosis Disease Severity Scale, or HDSS, wherein patients rate the severity of their disease on a four-point scale. Patients who rate the severity of their disease as a three or a four on the HDSS are considered to have severe disease, while those who rate it as one or two are considered to have mild or moderate disease. All 38 patients enrolled in the clinical trial rated the severity of their disease as a three or a four on the HDSS prior to the start of treatment. Trial inclusion criteria required that prior to the start of treatment, all patients produce at least 50 mg of sweat in each axilla over a five-minute period.

[2] = test system: patients with severe primary axillary hyperhidrosis; assay: Study DRM04-HH01 (Phase 2b): adverse events
Protocol: Assessments were conducted approximately weekly during the four-week treatment period and the two-week period after the end of this treatment period. […] Trial inclusion criteria required that prior to the start of treatment, all patients produce at least 50 mg of sweat in each axilla over a five-minute period.

[3] = test system: patients with severe primary axillary hyperhidrosis; assay: Phase 2a clinical trial: axillary sweat production; assay type: in vivo, human
Protocol: as §1
as §2, with “Efficacy” for “Patients were instructed to apply the study product once daily for four weeks using wipes saturated with either the topical formulation of the reference agent or vehicle only. Efficacy”, “All 38 patients enrolled in the clinical trial rated the severity of their disease as a three or a four on the HDSS prior to the start of treatment.” left out

## C[N+]1(C)CCC(OC(=O)C(O)(c2ccccc2)C2CCCC2)C1.[Br-] (stereo not drawn) [reference agent, threo-glycopyrronium bromide]
[1]
  patients reporting improvement in disease severity (HDSS) from severe to mild or moderate: Nine of 12
[2]; 1% cohort
  patients who withdrew from the study due to adverse events: 2.6%
[2]; 2% cohort
  patients who withdrew from the study due to adverse events: 5.0%
[2]; 3% cohort
  patients who withdrew from the study due to adverse events: 2.5%
[2]; 4% cohort
  patients who withdrew from the study due to adverse events: 20.0%
[2]; in vivo
  most common TEAEs: dry mouth, upper respiratory tract infection, dry skin and blurred vision
  treatment-related serious adverse events: No treatment-related serious adverse events were reported
[3]; Formulation A, nine patients, end of four-week treatment period
  sweat production on average lower than at the start of therapy: 61%
[3]; two weeks following cessation of therapy
  reversibility of effect on sweating and disease severity: appeared to be reversible
